These results are taken from patent US11306078B2, “Piperidine CXCR7 receptor modulators” (IDORSIA PHARMACEUTICALS LTD., priority 2016, dated 2022).

pIC50: −log10 of the molar value.

The target in this test is human chemokine receptor CXCR7 (Homo sapiens (Human), UniProt P25106). The test is described as follows: Tango CXCR7-bla U2OS beta-arrestin recruitment assay (beta-lactamase reporter, FRET), antagonism of CXCL12/SDF1-α.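 Further: compounds preincubated 15 min before CXCL12 addition, then 22 h at 37 °C, FRET emission ratio read with CCF4-AM substrate after 2 h.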 The test is classed as cell-based. The note with it: antagonistic effect on CXCR7; Tango CXCR7-bla U2OS cells, CXCL12/SDF1-α at its EC80. In general terms: Activated receptors often draw arrestin, which recruitment assays turn into a signal.
human chemokine receptor CXCR7, sequence (P25106 whole entry): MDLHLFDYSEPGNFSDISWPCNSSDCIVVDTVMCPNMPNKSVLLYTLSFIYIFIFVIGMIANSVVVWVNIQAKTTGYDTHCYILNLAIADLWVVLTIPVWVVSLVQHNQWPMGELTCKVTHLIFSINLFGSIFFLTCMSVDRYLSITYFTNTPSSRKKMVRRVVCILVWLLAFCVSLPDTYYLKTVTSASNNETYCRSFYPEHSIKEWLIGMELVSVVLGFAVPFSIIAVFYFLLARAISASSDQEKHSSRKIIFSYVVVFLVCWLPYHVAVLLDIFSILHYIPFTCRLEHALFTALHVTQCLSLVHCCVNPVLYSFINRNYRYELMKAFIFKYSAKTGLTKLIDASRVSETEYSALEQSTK
As a reminder, the pIC50 is the negative decadic logarithm of the IC50, by convention in mol/L. Read a high pIC50 as a small IC50. `O=C(N[C@H]1CCN(C2CCCC2)C[C@@H]1C(=O)NC1(c2cnccn2)CC1)c1cc(-c2ccc(F)cc2F)on1` [Example 1.181, (3S,4S)-1-Cyclopentyl-4-{[5-(2,4-difluoro-phenyl)-isoxazole-3-carbonyl]-amino}-piperidine-3-carboxylic acid (1-pyrazin-2-yl-cyclopropyl)-amide] showed a pIC50 of 6.98.
For `CCN(CC)C(=O)[C@@H]1CN(CC2CC2)CC[C@H]1NC(=O)c1cc(-c2ccc(F)cc2F)on1` [Example 4.071], the pIC50 is 6.67.
Regarding `CCOC(=O)[C@H](NC(=O)[C@H]1CN(CC2CC2)CCC1NC(=O)c1cc(-c2ccc(F)cc2F)on1)c1ccccc1` (stereo partly shown) [Example 4.073], the pIC50 was 6.76.
Turning to `O=C(N[C@@H]1CCN(CC2CC2)C[C@H]1C(=O)NC1(c2ccccn2)CC1)c1cc(-c2c(F)cc(F)cc2F)on1` (racemic) [Example 1.171, rac-(3R*,4R*)-1-Cyclopropylmethyl-4-{[5-(2,4,6-trifluoro-phenyl)-isoxazole-3-carbonyl]-amino}-piperidine-3-carboxylic acid (1-pyridin-2-yl-cyclopropyl)-amide], the negative logarithm of the IC50 (pIC50) is 7.80.
`C[C@@H](NC(=O)[C@@H]1CN(C2CCCC2)CC[C@H]1NC(=O)c1cn(-c2ccc(F)cc2F)nn1)c1ccccn1` (relative stereo) [Example 1.118, (3R*,4R*)-1-Cyclopentyl-4-{[1-(2,4-difluoro-phenyl)-1H-[1,2,3]triazole-4-carbonyl]-amino}-piperidine-3-carboxylic acid ((R)-1-pyridin-2-yl-ethyl)-amide] showed a pIC50 of 7.44.
Next, `O=C(N[C@H]1CCN(C2CC3CC3C2)C[C@@H]1C(=O)NC1(c2ncccn2)CC1)c1cc(-c2ccc(F)cc2F)on1` (stereo partly shown) [Example 2.094]: 8.70; `O=C(N[C@@H]1CCN(CC2CC2)C[C@H]1C(=O)N1CCC1)c1cc(-c2c(F)cc(F)cc2F)on1` (racemic) [Example 1.107, rac-5-(2,4,6-Trifluoro-phenyl)-isoxazole-3-carboxylic acid [(3R*,4R*)-3-(azetidine-1-carbonyl)-1-cyclopropylmethyl-piperidin-4-yl]-amide]: 6.28; `O=C(N[C@@H]1CCN([C@@H]2CCCC[C@H]2O)C[C@H]1C(=O)NC1(c2ncccn2)CC1)c1cc(-c2ccc(F)cc2F)on1` [Example 2.06]: 8.40.
Next, `COCC(C)(C)NC(=O)[C@@H]1CN([C@@H]2CCC[C@H]2C)CC[C@H]1NC(=O)c1cc(-c2c(F)cc(F)cc2F)on1` (relative stereo) [Example 1.114, (3R*,4R*)-1-((1RS,2RS)-2-Methyl-cyclopentyl)-4-{[5-(2,4,6-trifluoro-phenyl)-isoxazole-3-carbonyl]-amino}-piperidine-3-carboxylic acid (2-methoxy-1,1-dimethyl-ethyl)-amide]: 6.20; `C[C@@H](NC(=O)[C@@H]1CN(C2CCCCC2)CC[C@H]1NC(=O)c1cc(-c2ccc(F)cc2F)on1)C1CCC1` [Example 4.009]: 6.24; `C#CC(C)NC(=O)[C@H]1CN(C2CCCC2)CC[C@@H]1NC(=O)c1cc(-c2ccc(F)cc2F)on1` (stereo partly shown) [Example 4.039]: 6.41.
`Cc1ccccc1-c1cc(C(=O)N[C@H]2CCN(CC3CC3)C[C@@H]2C(=O)NC2(c3ncccn3)CC2)no1` [Example 7.002, (3S,4S)-1-Cyclopropylmethyl-4-[(5-o-tolyl-isoxazole-3-carbonyl)-amino]-piperidine-3-carboxylic acid (1-pyrimidin-2-yl-cyclopropyl)-amide] had a pIC50 of 6.51.
As to `CC(C)(C#N)NC(=O)[C@@H]1CN(C2CCCCC2)CC[C@H]1NC(=O)c1cc(-c2ccc(F)cc2F)on1` (racemic) [Example 1.183, rac-(3R*,4R*)-1-Cyclohexyl-4-{[5-(2,4-difluoro-phenyl)-isoxazole-3-carbonyl]-amino}-piperidine-3-carboxylic acid (cyano-dimethyl-methyl)-amide], the negative logarithm of the IC50 (pIC50) was 7.10.
For `C[C@@H]1CCC[C@H]1N1CC[C@@H](NC(=O)c2cn(-c3ccc(F)cc3F)nn2)[C@H](C(=O)N[C@H](C)C2CCC2)C1` (relative stereo) [Example 1.137, (3R*,4R*)-4-{[1-(2,4-Difluoro-phenyl)-1H-[1,2,3]triazole-4-carbonyl]-amino}-1-((1RS,2RS)-2-Methyl-cyclopentyl)-piperidine-3-carboxylic acid ((R)-1-cyclobutyl-ethyl)-amide], the pIC50 was 6.04.
Regarding `O=C(N[C@@H]1CCN(CC2CC2)C[C@H]1C(=O)NC1(c2ncccn2)CC1)c1noc(-c2ccc(F)cc2)c1F` (racemic) [Example 3.021, rac-(3R*,4R*)-1-Cyclopropylmethyl-4-{[4-fluoro-5-(4-fluoro-phenyl)-isoxazole-3-carbonyl]-amino}-piperidine-3-carboxylic acid (1-pyrimidin-2-yl-cyclopropyl)-amide], the negative-log IC50 (pIC50) is 7.40.
The molecule `COCC(C)(C)NC(=O)[C@@H]1CN(CC2CC2)CC[C@H]1NC(=O)c1cc(-c2c(F)cc(F)cc2F)on1` (single isomer, unassigned) [Example 1.113b, (3R*,4R*)-1-Cyclopropylmethyl-4-{[5-(2,4,6-trifluoro-phenyl)-isoxazole-3-carbonyl]-amino}-piperidine-3-carboxylic acid (2-methoxy-1,1-dimethyl-ethyl)-amide] showed a negative logarithm of the IC50 (pIC50) of 7.32.
As to `C[C@@H]1CCC[C@H]1N1CC[C@@H](NC(=O)c2cc(-c3ccc(F)cc3F)no2)[C@H](C(=O)N(C)C)C1` [Example 1.15], the pIC50 was 6.81.
In the case of `C[C@@H](NC(=O)[C@@H]1CN(C2CCCCC2)CC[C@H]1NC(=O)c1cc(-c2c(F)cc(F)cc2F)on1)c1ccccn1` (single isomer, unassigned) [Example 1.121a, (3R*,4R*)-1-Cyclohexyl-4-{[5-(2,4,6-trifluoro-phenyl)-isoxazole-3-carbonyl]-amino}-piperidine-3-carboxylic acid ((R)-1-pyridin-2-yl-ethyl)-amide] it was 6.13; in that of `C[C@@H](NC(=O)[C@H]1CN(CC2CC2)CC[C@@H]1NC(=O)c1cc(-c2ccc(F)cc2F)on1)c1cccnc1` [Example 4.024], 7.25.
As to “rac-(3R*,4R*)-1-Cyclohexyl-4-{[5-(2-difluoro-phenyl)-oxazole-2-carbonyl]-amino}-piperidine-3-carboxylic acid (1-pyridin-2-yl-cyclopropyl)-amide [Example 3.011]”, the negative-log IC50 (pIC50) was 7.66.
On to `C[C@@H](NC(=O)[C@@H]1CN(CC2CC2)CC[C@H]1NC(=O)c1cc(-c2c(F)cc(F)cc2F)on1)C1CCC1` (single isomer, unassigned) [Example 1.139a, (3R*,4R*)-1-Cyclopropylmethyl-4-{[5-(2,4,6-trifluoro-phenyl)-isoxazole-3-carbonyl]-amino}-piperidine-3-carboxylic acid ((R)-1-cyclobutyl-ethyl)-amide], for which the negative-log IC50 (pIC50) is 6.10.
In turn, `C[C@@H](NC(=O)[C@H]1CN(C2CCCC2)CC[C@@H]1NC(=O)c1cc(-c2ccc(F)cc2F)on1)c1cccnc1` [Example 4.042] gave a negative-log IC50 (pIC50) of 7.13.
Next, `CCN1CC[C@@H](NC(=O)c2cc(-c3ccc(F)cc3F)on2)[C@H](C(=O)N(C)C)C1` [Example 2.002]: 6.17; “(3R*,4R*)-1-Cyclohexyl-4-{[1-(2,4-difluoro-phenyl)-1H-[1,2,3]triazole-4-carbonyl]-amino}-piperidine-3-carboxylic acid ((1R*,2S*)-2-phenyl-cyclopropyl)-amide and (3R*,4R*)-1-Cyclohexyl-4-{[1-(2,4-difluoro-phenyl)-1H-[1,2,3]triazole-4-carbonyl]-amino}-piperidine-3-carboxylic acid ((1S*,2R*)-2-phenyl-cyclopropyl)-amide [Example 1.145]”: 6.44; `C[C@@H](NC(=O)[C@@H]1CN(CC2CC2)CC[C@H]1NC(=O)c1cn(-c2ccc(F)cc2F)nn1)C1CCC1` (relative stereo) [Example 1.136, (3R*,4R*)-1-Cyclopropylmethyl-4-{[1-(2,4-difluoro-phenyl)-1H-[1,2,3]triazole-4-carbonyl]-amino}-piperidine-3-carboxylic acid ((R)-1-cyclobutyl-ethyl)-amide]: 6.69.
With `O=C(N[C@H]1CCN(CC2CC2)C[C@@H]1C(=O)NC1(c2ncccn2)CC1)c1ncc(-c2ccc(F)cc2)o1` [Example 7.007, (3S,4S)-1-Cyclopropylmethyl-4-{[5-(4-fluoro-phenyl)-oxazole-2-carbonyl]-amino}-piperidine-3-carboxylic acid (1-pyrimidin-2-yl-cyclopropyl)-amide], the negative-log IC50 (pIC50) was 6.85.
In the case of `O=C(N[C@H]1CCN(C2CCC2)C[C@@H]1C(=O)NC1(c2ncccn2)CC1)c1ncc(-c2ccc(F)cc2F)o1` [Example 2.097] it was 6.19.
Next, `O=C(N[C@H]1CCN(C2CCC2)C[C@@H]1C(=O)NC1(c2ncccn2)CC1)c1nnc(-c2ccc(F)cc2F)s1` [Example 2.105]: 7.22; `CC(C)(C)N1CC[C@@H](NC(=O)c2cc(-c3ccc(F)cc3F)on2)[C@H](C(=O)NC2(c3ncccn3)CC2)C1` [Example 4.101a]: 7.74.
Next, `O=C(N[C@H]1CCNC[C@@H]1C(=O)NC1(c2ncccn2)CC1)c1nnc(-c2ccc(F)cc2F)s1` [Example 2.104]: 6.71; `C[C@@H](NC(=O)[C@@H]1CN(C2CCCCC2)CC[C@H]1NC(=O)c1cc(-c2c(F)cc(F)cc2F)on1)c1cnccn1` (single isomer, unassigned) [Example 1.129b, (3R*,4R*)-1-Cyclohexyl-4-{[5-(2,4,6-trifluoro-phenyl)-isoxazole-3-carbonyl]-amino}-piperidine-3-carboxylic acid ((R)-1-pyrazin-2-yl-ethyl)-amide]: 7.46.
In the case of `C[C@@H](NC(=O)[C@H]1CN(C2CCC2)CC[C@@H]1NC(=O)c1cc(-c2ccc(F)cc2F)on1)c1ncccn1` [Example 4.084], the pIC50 is 6.63.
Consider `CN(CCc1ccccc1)C(=O)[C@@H]1CNCC[C@H]1NC(=O)c1cc(-c2ccc(F)cc2F)on1` [Example 2.058], for which the pIC50 was 6.46.
Take `COCC(C)(C)NC(=O)[C@@H]1CN(CC2CC2)CC[C@H]1NC(=O)c1cn(-c2ccc(F)cc2F)nn1` [Example 1.11]: the negative logarithm of the IC50 (pIC50) is 6.27.
